The record followed here is patent US20240245800A1, “HIGHLY SPECIFIC RABBIT SINGLE -DOMAIN ANTIBODIES FOR DRUG DELIVERY IN IMMUNOTHERAPY APPLICATIONS” (TECHNOPHAGE, INVESTIGAÇÃO E DESENVOLVIMENTO EM …, priority 2021, published 2024).

The test system of data set [1] is LN229 cell line. As to the kind of experiment: BEB-glioblastoma (BEB-GBM) in vitro model: LN229 viability. The data set is classed as cell-based. Set-up: dose or concentration left out as unconfirmed. To be noted: PAN free added to apex, 24 h. How it is done: FIG. 18. Activity of liposomal drug delivery in the BEB-Glioblastoma model, wherein an in vitro BEB-GBM model was developed to mimic the complexity of drug delivery to a brain tumour. This model combined a monolayer of bEnd.3, as the BBB barrier, and the LN229 cell line at the base as the glioblastoma tumour.
FIG. 18B. PAN encapsulated RG3 and FC5 functionalized liposomes were analysed in terms of BEB translocation and delivery of PAN to a glioblastoma cell line and compared with non-functionalized unloaded liposomes (Control). […] The cytotoxic effect of PAN in LN229 was determined by adding WST-1 reagent. The values were obtained from duplicates of two independent experiments ([…]).

In data set [2] the test system is bEnd.3.
Experimental: The integrity of the bEnd.3 was measured by determining the translocation of the FD40 fluorescent probe while LN229 viability was determined using WST-1 reagent and OD450 nm measurement following 24 h incubation, and
The in vitro BEB models were optimized based on previous studies [45]. Briefly, bEnd.3 cells were cultured in DMEM, supplemented with 10% FBS and 1% penicillin/streptomycin (Lonza, Basel, Switzerland) antibiotic solution. Cells were cultured in a humidified atmosphere of 5% CO2 at 37° C. and the medium changed every other day. […] Samples were recovered from the apex and base and fluorescence intensity was measured in a microtiter plate reader (BMG Labtech, Fluostar OPTIMA, Ortenberg, Germany) with an excitation of 485 nm and a maximum emission at 520 nm.
To study the BEB translocation efficiency of the Lip-PAN-RG3 and Lip-PAN-FC5 liposomes and subsequent drug delivery and cytotoxic activity of PAN in a glioblastoma cell line, a dual in vitro non-contact co-culture model was established with bEnd.3 and LN229 cells. […] Following the 24 h treatment, WST-1 was added to the plate, and O.D.450 nm was measured following 24 h incubation. Each data point was determined using three replicate wells and two independent experiments were carried out in different days. […] In parallel, the integrity of the BEB model was measured as described previously.

The structures appear in SMILES notation.

For `Cc1[nH]c2ccccc2c1CCNCc1ccc(/C=C/C(=O)NO)cc1` [PAN, panobinostat], the “effect on LN229 viability in BEB-GBM model” value in data set [1] is on record as “no significant effect”. Also, in data set [2], the “effect on BEB integrity in BEB-GBM model” value is listed as “no significant effect”.
